{"source": "ChEMBL document CHEMBL5338766", "about": "“X-ray Crystal Structure-Guided Discovery of Novel Indole Analogues as Colchicine-Binding Site Tubulin Inhibitors with Immune-Potentiating and Antitumor Effects against Melanoma” (J Med Chem, 2023)", "key": {"[1]": {"test": "AUC (0 to t) in Sprague-Dawley rat at 20 mg/kg, po measured upto 12 hrs by UPLC-MS/ESI analysis", "format": "ADME, organism-based", "parameters": "time < 12 hrs, dose 20 mg/kg, route po", "details": "in vivo"}, "B16-F10 [2]": {"test_system": "B16-F10", "test": "Antitumor immunity in C57 mouse implanted with mouse B16-F10 cells assessed as increase in CD3+ CD8+ cytotoxic T cells in tumor at 2.5 mg/kg, ip administered every day for 14 days in the presence of NP19 by flow cytometric analysis (reference value: 0.340%)", "format": "functional", "details": "time 14 day"}, "[3]": {"test": "Tmax in Sprague-Dawley rat at 20 mg/kg, po measured upto 12 hrs by UPLC-MS/ESI analysis", "format": "ADME, organism-based", "details": "in vivo"}, "[4]": {"test": "Antiproliferative activity against parental human A549S cells assessed as inhibition of cell proliferation incubated for 48 hrs by MTT assay", "format": "functional, cell-based"}, "[5]": {"test": "Cmax in Sprague-Dawley rat at 2 mg/kg, iv measured upto 12 hrs by UPLC-MS/ESI analysis", "format": "ADME, organism-based", "parameters": "dose 2 mg/kg, time < 12 hrs, route iv", "details": "in vivo"}, "[6]": {"test": "Toxicity in C57 mouse implanted with mouse B16-F10 cells assessed as pathological changes in liver at 2.5 mg/kg, ip administered every day for 14 days in the presence of NP19 by H&E staining based microscopic analysis", "format": "organism-based", "details": "in vivo, 336 h, time 14 day"}, "HepG2 [7]": {"test_system": "HepG2", "test": "Cell cycle arrest in human HepG2 cells assessed as accumulation of cells at G2 phase at 1 nM incubated for 48 hrs by RNaseA/PI staining based flow cytometric analysis (reference value: 17.37%)", "format": "functional"}, "[8]": {"test": "Toxicity in C57 mouse implanted with mouse B16-F10 cells assessed as pathological changes in liver at 5 mg/kg, ip administered every day for 14 days by H&E staining based microscopic analysis", "format": "organism-based", "details": "in vivo, 336 h, time 14 day"}, "HepG2 [9]": {"test_system": "HepG2", "test": "Induction of apoptosis in human HepG2 cells assessed as late apoptotic cells at 0.5 nM incubated for 48 hrs by Annexin V-FITC/PI staining based flow cytometric analysis (reference value: 4.96 %)", "format": "functional"}, "HepG2 [10]": {"test_system": "HepG2", "test": "Antimigratory activity in human HepG2 cells assessed as reduction in recovery area at 5 nM incubated for 24 hrs by wound healing assay (reference value: 65.84%)", "format": "functional", "parameters": "scale not given: the % may be the effect or the level left"}, "[11]": {"test": "Acute toxicity in C57 mouse assessed as survival rate at 100 mg/kg, po administered daily for 14 days relative to control", "format": "organism-based", "details": "in vivo, time 14 day, read-out: Activity"}, "[12]": {"test": "Antiproliferative activity against paclitaxel resistant human A549/TxR cells assessed as inhibition of cell proliferation incubated for 48 hrs by MTT assay", "format": "functional, cell-based"}, "B16-F10 [13]": {"test_system": "B16-F10", "test": "Antitumor activity against mouse B16-F10 cells implanted in C57 mouse assessed as tumor growth inhibition at 5 mg/kg, ip administered every day for 14 days relative to control", "format": "functional", "details": "B16-F10, 336 h, time 14 day, read-out: TGI"}, "[14]": {"test": "MRT (0 to t) in Sprague-Dawley rat at 20 mg/kg, po measured upto 12 hrs by UPLC-MS/ESI analysis", "format": "ADME, organism-based", "details": "in vivo"}, "HepG2 [15]": {"test_system": "HepG2", "test": "Induction of apoptosis in human HepG2 cells assessed as late apoptotic cells at 5 nM incubated for 48 hrs by Annexin V-FITC/PI staining based flow cytometric analysis (reference value: 4.96 %)", "format": "functional"}, "B16-F10 [16]": {"test_system": "B16-F10", "test": "Antitumor activity against mouse B16-F10 cells implanted in C57 mouse assessed as tumor growth inhibition at 2.5 mg/kg, ip administered every day for 14 days in the presence of NP19 relative to control", "format": "functional", "details": "B16-F10, 336 h, time 14 day, read-out: TGI"}, "B16-F10 [17]": {"test_system": "B16-F10", "test": "Antitumor immunity in C57 mouse implanted with mouse B16-F10 cells assessed as increase in CD3+ CD4+ helper T cells in tumor at 2.5 mg/kg, ip administered every day for 14 days in the presence of NP19 by flow cytometric analysis (reference value: 0.332%)", "format": "functional", "details": "time 14 day"}, "[18]": {"test": "Clearance in Sprague-Dawley rat at 2 mg/kg, iv measured upto 12 hrs by UPLC-MS/ESI analysis", "format": "ADME, organism-based", "details": "in vivo"}, "A2780/Taxol": {"test_system": "A2780/Taxol", "test": "Antiproliferative activity against paclitaxel resistant human A2780/Taxol cells assessed as inhibition of cell proliferation incubated for 48 hrs by MTT assay", "format": "functional, cell-based"}, "HepG2 [19]": {"test_system": "HepG2", "test": "Induction of apoptosis in human HepG2 cells assessed as early apoptotic cells at 0.5 nM incubated for 48 hrs by Annexin V-FITC/PI staining based flow cytometric analysis (reference value: 7.01 %)", "format": "functional"}, "HepG2 [20]": {"test_system": "HepG2", "test": "Cell cycle arrest in human HepG2 cells assessed as accumulation of cells at G2 phase at 0.5 nM incubated for 48 hrs by RNaseA/PI staining based flow cytometric analysis (reference value: 17.37%)", "format": "functional"}, "[21]": {"test": "Toxicity in C57 mouse implanted with mouse B16-F10 cells assessed as body weight loss at 5 mg/kg, ip administered every day for 14 days", "format": "organism-based", "details": "in vivo, 336 h, time 14 day"}, "[22]": {"test": "Half-life in Sprague-Dawley rat at 20 mg/kg, po measured upto 12 hrs by UPLC-MS/ESI analysis", "format": "ADME, organism-based", "details": "in vivo"}, "Tubulin": {"biological_target": "Tubulin", "test": "Binding affinity to tubulin (unknown origin) assessed as affinity constant by SPR analysis", "format": "protein-complex assay, Homo sapiens"}, "B16-F10 [23]": {"test_system": "B16-F10", "test": "Antitumor immunity in C57 mouse implanted with mouse B16-F10 cells assessed as increase in CD3+ CD8+ cytotoxic T cells in tumor at 5 mg/kg, ip administered every day for 14 days by flow cytometric analysis (reference value: 0.340%)", "format": "functional", "details": "time 14 day"}, "HepG2 [24]": {"test_system": "HepG2", "test": "Induction of apoptosis in human HepG2 cells assessed as viable cells at 5 nM incubated for 48 hrs by Annexin V-FITC/PI staining based flow cytometric analysis (reference value: 87.6%)", "format": "functional", "details": "read-out: Activity"}, "HepG2 [25]": {"test_system": "HepG2", "test": "Induction of apoptosis in human HepG2 cells assessed as necrotic cells at 1 nM incubated for 48 hrs by Annexin V-FITC/PI staining based flow cytometric analysis (reference value: 0.443%)", "format": "functional"}, "HepG2 [26]": {"test_system": "HepG2", "test": "Induction of apoptosis in human HepG2 cells assessed as early apoptotic cells at 1 nM incubated for 48 hrs by Annexin V-FITC/PI staining based flow cytometric analysis (reference value: 7.01 %)", "format": "functional"}, "HepG2 [27]": {"test_system": "HepG2", "test": "Cell cycle arrest in human HepG2 cells assessed as accumulation of cells at […] at 5 nM incubated for 48 hrs by RNaseA/PI staining based flow cytometric analysis (reference value: 23.81%)", "format": "functional"}, "HepG2 [28]": {"test_system": "HepG2", "test": "Inhibition of colony formation in human HepG2 cells incubated for 24 hrs by crystal violet staining based analysis", "format": "functional, cell-based", "details": "dose 0.5-5 nM"}, "[29]": {"test": "Oral bioavailability in Sprague-Dawley rat at 20 mg/kg measured upto 12 hrs by UPLC-MS/ESI analysis", "format": "ADME, organism-based", "details": "in vivo"}, "B16-F10 [30]": {"test_system": "B16-F10", "test": "Antiproliferative activity against mouse B16-F10 cells assessed as inhibition of cell proliferation incubated for 48 hrs by MTT assay", "format": "functional, cell-based", "details": "B16-F10, 48 h"}, "[31]": {"test": "Acute toxicity in C57 mouse assessed as survival rate at 51.2 mg/kg, po administered daily for 14 days relative to control", "format": "organism-based", "details": "in vivo, time 14 day, read-out: Activity"}, "[32]": {"test": "Toxicity in C57 mouse implanted with mouse B16-F10 cells assessed as pathological changes in kidney at 5 mg/kg, ip administered every day for 14 days by H&E staining based microscopic analysis", "format": "organism-based", "details": "in vivo, 336 h, time 14 day"}, "[33]": {"test": "Acute toxicity in C57 mouse assessed as lethal dose administered orally daily for 14 days", "details": "in vivo, route po, time 14 day"}, "HepG2 [34]": {"test_system": "HepG2", "test": "Cell cycle arrest in human HepG2 cells assessed as accumulation of cells at S phase at 1 nM incubated for 48 hrs by RNaseA/PI staining based flow cytometric analysis (reference value: 23.81%)", "format": "functional"}}, "data": [{"smiles": "COc1cc(-c2nccc3[nH]c(-c4cccc5c4ccn5C)nc23)cc(OC)c1OC", "values": [{"measurement": "AUC(0-t) at 12 h", "setting": "[1]", "result": 3330, "unit": "ng·h/mL"}, {"measurement": "Activity", "setting": "B16-F10 [2]", "result": 3.34, "unit": "%"}, {"measurement": "Tmax", "setting": "[3]", "result": 55.2, "unit": "min"}, {"measurement": "IC50", "setting": "[4]", "result": 8.5, "unit": "nM"}, {"measurement": "Cmax", "setting": "[5]", "result": 1730, "unit": "ng/mL"}, {"measurement": "Activity", "setting": "[6]", "result": "Non-Toxic"}, {"measurement": "Activity", "setting": "HepG2 [7]", "result": 36.46, "unit": "%"}, {"measurement": "Activity", "setting": "[8]", "result": "Non-Toxic"}, {"measurement": "Activity", "setting": "HepG2 [9]", "result": 6.41, "unit": "%"}, {"measurement": "Activity", "setting": "HepG2 [10]", "result": 22.16, "unit": "%"}, {"measurement": "survival at 336 h", "setting": "[11]", "result": 0, "unit": "%"}, {"measurement": "IC50", "setting": "[12]", "result": 15.3, "unit": "nM"}, {"measurement": "inhibition in vivo at 5 mg/kg", "setting": "B16-F10 [13]", "result": 63, "unit": "%"}, {"measurement": "MRT last at 12 h", "setting": "[14]", "result": 3.06, "unit": "h"}, {"measurement": "Activity", "setting": "HepG2 [15]", "result": 5.74, "unit": "%"}, {"measurement": "inhibition in vivo at 2.5 mg/kg", "setting": "B16-F10 [16]", "result": 77.8, "unit": "%"}, {"measurement": "Activity", "setting": "B16-F10 [17]", "result": 2.35, "unit": "%"}, {"measurement": "clearance", "setting": "[18]", "result": 11.2, "unit": "mL/min/kg"}, {"measurement": "IC50", "setting": "A2780/Taxol", "result": 5.1, "unit": "nM"}, {"measurement": "Activity", "setting": "HepG2 [19]", "result": 8.59, "unit": "%"}, {"measurement": "Activity", "setting": "HepG2 [20]", "result": 20.73, "unit": "%"}, {"measurement": "Activity", "setting": "[21]", "result": "Non-Toxic"}, {"measurement": "half-life", "setting": "[22]", "result": 110, "unit": "min"}, {"measurement": "Kd", "setting": "Tubulin", "result": 18.3, "unit": "µM"}, {"measurement": "Activity", "setting": "B16-F10 [23]", "result": 0.923, "unit": "%"}, {"measurement": "viability at 0.005 µM", "setting": "HepG2 [24]", "result": 11, "unit": "%"}, {"measurement": "Activity", "setting": "HepG2 [25]", "result": 0.189, "unit": "%"}, {"measurement": "Activity", "setting": "HepG2 [26]", "result": 31.3, "unit": "%"}, {"measurement": "Activity", "setting": "HepG2 [27]", "result": 22.8, "unit": "%"}, {"measurement": "inhibition", "setting": "HepG2 [28]", "result": "Dose-Dependent Effect"}, {"measurement": "bioavailability", "setting": "[29]", "result": 11, "unit": "%"}, {"measurement": "IC50", "setting": "B16-F10 [30]", "result": 2, "unit": "nM"}, {"measurement": "survival at 336 h", "setting": "[31]", "result": 90, "unit": "%"}, {"measurement": "Activity", "setting": "[32]", "result": "Non-Toxic"}, {"measurement": "LD50 at 336 h", "setting": "[33]", "result": 66.9, "unit": "mg/kg"}, {"measurement": "Activity", "setting": "HepG2 [34]", "result": 20.35, "unit": "%"}]}]}
